Literature values, collected in patent US5977101A, “Benzimidazoles/Imidazoles Linked to a Fibrinogen Receptor Antagonist Template Having Vitronectin Receptor Antagonist Activity” (SmithKline Beecham Corporation, priority 1996, dated 1999).

Key:
osteoclasts = conditions: Sato et al. 1990; Bertolini et al.
bone resorption [1] = conditions: Sato et al., J. Cell Biol. 1990
bone resorption [2] = conditions: rat; Fisher et al., Endocrinology 1993

Substance	inhibition of attachment of osteoclasts to bone (osteoclasts)	inhibition of bone resorption in tissue culture (bone resorption [1])	inhibition of bone resorption in vivo (bone resorption [2])
cylco-S,S-N^α -acetyl-cysteinyl-N^α -methyl-argininyl-glycyl-aspartyl-penicillamine	inhibits	–	–
echistatin	inhibits	potent inhibitor	inhibits
